{"source": "paper PMC3777193", "about": "“Diaryl- and triaryl-pyrrole derivatives: inhibitors of the MDM2–p53 and MDMX–p53 protein–protein interactions” (Medchemcomm, 2013)", "key": {"A2780-CP70": {"test_system": "A2780-CP70", "experiment": "Growth inhibitory activity, A2780-CP70 (Table S3)", "type": "cell-based", "conditions": "A2780/CP70, read-out: GI50 A2780-CP70", "from_the_text": "(§1) (2 pictures or pasted objects on this page, not shown here)"}, "HCT116": {"test_system": "HCT116", "experiment": "Growth inhibitory activity, HCT116 (Table S3)", "type": "cell-based", "conditions": "Homo sapiens, HCT-116, read-out: GI50 HCT116", "from_the_text": "as §1"}, "HCT116 p53(-/-)": {"test_system": "HCT116 p53(-/-)", "experiment": "Growth inhibitory activity, HCT116 p53(-/-) (Table S3)", "type": "cell-based", "conditions": "Homo sapiens, HCT-116, read-out: GI50 HCT116 p53(-/-)", "from_the_text": "as §1"}, "MDM2–p53": {"target": "MDM2–p53 (Homo sapiens, UniProt Q00987)", "sequence (Q00987 whole entry)": "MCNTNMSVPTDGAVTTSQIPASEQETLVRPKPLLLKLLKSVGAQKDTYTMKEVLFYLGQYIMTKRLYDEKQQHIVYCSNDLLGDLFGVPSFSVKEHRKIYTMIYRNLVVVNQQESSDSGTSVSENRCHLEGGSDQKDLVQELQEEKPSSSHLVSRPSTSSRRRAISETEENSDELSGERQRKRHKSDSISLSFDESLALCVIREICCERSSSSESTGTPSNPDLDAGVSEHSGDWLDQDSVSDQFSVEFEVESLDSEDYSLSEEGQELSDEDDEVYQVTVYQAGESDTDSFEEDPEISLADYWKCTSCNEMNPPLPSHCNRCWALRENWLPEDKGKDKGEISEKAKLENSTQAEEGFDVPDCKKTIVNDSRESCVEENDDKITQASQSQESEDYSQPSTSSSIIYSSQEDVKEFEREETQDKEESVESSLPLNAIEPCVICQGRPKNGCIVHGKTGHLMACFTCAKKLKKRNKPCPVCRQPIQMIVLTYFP", "experiment": "MDM2–p53 ELISA protein–protein binding assay"}, "[1]": {"experiment": "Growth inhibitory activity, A2708 (Table S3)", "type": "cell-based", "conditions": "read-out: GI50 A2708", "from_the_text": "as §1"}, "SJSA-1": {"test_system": "SJSA-1", "experiment": "Growth inhibitory activity, SJSA-1", "conditions": "Homo sapiens, SJSA-1, read-out: GI50 SJSA-1", "protocol": "(§2) Growth inhibitory activity was determined for selected pyrroles in a panel of cell lines with defined MDM2, MDMX and p53 status (Table 5)."}, "MDMX–p53": {"target": "T1, MDMX–p53 (Homo sapiens, UniProt O15151)", "T1 construct": "host or cells: in vitro coupled T7 transcription and rabbit reticulocyte lysate translation", "T1 sequence (O15151 1-490)": "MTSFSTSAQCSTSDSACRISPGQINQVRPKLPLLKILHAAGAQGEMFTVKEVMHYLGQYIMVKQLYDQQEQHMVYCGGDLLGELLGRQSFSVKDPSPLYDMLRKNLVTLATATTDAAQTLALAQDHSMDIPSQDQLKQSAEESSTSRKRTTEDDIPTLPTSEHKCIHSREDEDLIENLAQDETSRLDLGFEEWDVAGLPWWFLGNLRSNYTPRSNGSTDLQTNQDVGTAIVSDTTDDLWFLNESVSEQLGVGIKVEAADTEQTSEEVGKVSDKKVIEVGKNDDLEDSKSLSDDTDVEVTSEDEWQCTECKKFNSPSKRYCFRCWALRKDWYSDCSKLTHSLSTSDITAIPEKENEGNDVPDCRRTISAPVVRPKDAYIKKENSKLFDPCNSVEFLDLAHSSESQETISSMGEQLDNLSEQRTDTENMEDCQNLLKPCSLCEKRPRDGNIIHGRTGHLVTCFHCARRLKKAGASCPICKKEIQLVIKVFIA", "experiment": "MDMX–p53 ELISA binding assay", "conditions": "read-out: MDMX IC50"}, "SN40R2": {"test_system": "SN40R2", "experiment": "Growth inhibitory activity, SN40R2", "conditions": "read-out: GI50 SN40R2", "protocol": "as §2"}, "MRK-NU-1": {"test_system": "MRK-NU-1", "experiment": "Growth inhibitory activity, MRK-NU-1", "conditions": "Homo sapiens, MRK-nu-1, read-out: GI50 MRK-NU-1", "protocol": "as §2"}}, "note": "Where two headings read alike, the source gives them in different places.", "data": [{"compound": "Cc1cc(C=C2C(=O)NC(=S)NC2=O)c(C)n1-c1ccc(Cl)cc1", "note": "[Compound 4a]", "values": [{"measurement": "GI50", "setting": "A2780-CP70", "value": "4.4 ± 0.2", "unit": "µM"}, {"measurement": "GI50", "setting": "HCT116", "value": "8.4 ± 0.5", "unit": "µM"}, {"measurement": "GI50", "setting": "HCT116 p53(-/-)", "value": "8.3 ± 0.4", "unit": "µM"}, {"measurement": "IC50", "setting": "MDM2–p53; read-out: MDM2 IC50", "value": "0.72 ± 0.1", "unit": "µM"}, {"measurement": "GI50", "setting": "[1]", "value": "3.4 ± 0.2", "unit": "µM"}, {"measurement": "GI50", "setting": "SJSA-1", "value": "3.3 ± 0.1", "unit": "µM"}]}, {"compound": "Cc1cc(/C=C2\\C(=O)NC(=S)N(c3ccccc3)C2=O)c(C)n1-c1ccc(Cl)cc1", "note": "[Compound 4b]", "values": [{"measurement": "GI50", "setting": "A2780-CP70", "value": "9.5 ± 0.1", "unit": "µM"}, {"measurement": "GI50", "setting": "HCT116", "value": "9.5 ± 0.3", "unit": "µM"}, {"measurement": "GI50", "setting": "HCT116 p53(-/-)", "value": "9.9 ± 0.1", "unit": "µM"}, {"measurement": "IC50", "setting": "MDM2–p53; read-out: MDM2 IC50", "value": "3.3 ± 0.7", "unit": "µM"}, {"measurement": "GI50", "setting": "[1]", "value": "8.4 ± 0.2", "unit": "µM"}, {"measurement": "GI50", "setting": "SJSA-1", "value": "7.6 ± 0.1", "unit": "µM"}]}, {"compound": "O=C1NC(=S)N(c2cccc(Cl)c2)C(=O)/C1=C/c1cc(-c2ccccc2)n(-c2ccc(Cl)cc2)c1-c1ccccc1", "note": "[Compound 4e]", "values": [{"measurement": "IC50", "setting": "MDM2–p53; read-out: MDM2 IC50", "value": "0.163 ± 0.017", "unit": "µM"}]}, {"compound": "Cc1ccc(N2C(=O)/C(=C\\c3cc(-c4ccccc4)n(-c4ccc(Cl)cc4)c3-c3ccccc3)C(=O)N(c3ccccc3)C2=S)cc1C", "note": "[Compound 4f]", "values": [{"measurement": "IC50", "setting": "MDM2–p53; read-out: MDM2-p53 IC50", "value": "0.26 ± 0.04", "unit": "µM"}, {"measurement": "IC50", "setting": "MDM2–p53; read-out: MDM2 IC50", "value": "0.256 ± 0.039", "unit": "µM"}]}, {"compound": "CN1C(=O)C(=Cc2cc(-c3ccccc3)n(-c3ccc(Cl)cc3)c2-c2ccccc2)C(=O)N(C)C1=S", "note": "[Compound 4g]", "values": [{"measurement": "MDM2-p53 IC50", "setting": "MDM2–p53", "value": "Insol."}, {"measurement": "MDM2 IC50", "setting": "MDM2–p53", "value": "Insol."}]}, {"compound": "Cc1cc(C=C2C(=O)N(c3ccccc3)C(=S)N(c3ccccc3)C2=O)c(C)n1-c1ccc(Br)cc1", "note": "[Compound 4h]", "values": [{"measurement": "IC50", "setting": "MDM2–p53; read-out: MDM2 IC50", "value": "0.199 ± 0.016", "unit": "µM"}]}, {"compound": "Cc1ccc(-n2c(C)cc(/C=C3\\C(=O)NC(=S)N(c4ccccc4)C3=O)c2C)cc1", "note": "[Compound 4i]", "values": [{"measurement": "GI50", "setting": "A2780-CP70", "value": "9 ± 0.4", "unit": "µM"}, {"measurement": "GI50", "setting": "HCT116", "value": "9.5 ± 0.3", "unit": "µM"}, {"measurement": "GI50", "setting": "HCT116 p53(-/-)", "value": "9.7 ± 0.2", "unit": "µM"}, {"measurement": "IC50", "setting": "MDM2–p53; read-out: MDM2 IC50", "value": "8.4 ± 0.9", "unit": "µM"}, {"measurement": "GI50", "setting": "[1]", "value": "7.5 ± 0.1", "unit": "µM"}, {"measurement": "GI50", "setting": "SJSA-1", "value": "7.1 ± 0.1", "unit": "µM"}]}, {"compound": "Cc1ccc(-n2c(C)cc(C=C3C(=O)NC(=S)NC3=O)c2C)cc1", "note": "[Compound 4j]", "values": [{"measurement": "IC50", "setting": "MDM2–p53; read-out: MDM2 IC50", "value": "4.7 ± 0.2", "unit": "µM"}]}, {"compound": "CCOC(=O)c1ccc(-n2c(-c3ccccc3)cc(C=C3C(=O)NC(=S)NC3=O)c2-c2ccccc2)cc1", "note": "[Compound 4k]", "values": [{"measurement": "IC50", "setting": "MDM2–p53; read-out: MDM2 IC50", "value": "0.7 ± 0.02", "unit": "µM"}]}, {"compound": "O=C1NC(=O)C(=Cc2cc(-c3ccccc3)n(-c3ccc(Cl)cc3)c2-c2ccccc2)C(=O)N1", "note": "[Compound 4m]", "values": [{"measurement": "IC50", "setting": "MDM2–p53; read-out: MDM2 IC50", "value": "0.3 ± 0.03", "unit": "µM"}]}, {"compound": "O=C1NC(=O)C(=Cc2cc(-c3ccccc3)n(-c3ccc(Br)cc3)c2-c2ccccc2)C(=O)N1", "note": "[Compound 4n]", "values": [{"measurement": "IC50", "setting": "MDM2–p53; read-out: MDM2 IC50", "value": "0.18 ± 0.07", "unit": "µM"}]}, {"compound": "COc1ccc(-n2c(-c3ccccc3)cc(C=C3C(=O)NC(=O)NC3=O)c2-c2ccccc2)cc1", "note": "[Compound 4o]", "values": [{"measurement": "IC50", "setting": "MDMX–p53", "value": "13 ± 7", "unit": "µM"}, {"measurement": "IC50", "setting": "MDM2–p53; read-out: MDM2 IC50", "value": "1.9 ± 0.3", "unit": "µM"}]}, {"compound": "CC(C)(C)c1ccc(-n2c(-c3ccccc3)cc(C=C3C(=O)NC(=O)NC3=O)c2-c2ccccc2)cc1", "note": "[Compound 4p]", "values": [{"measurement": "IC50", "setting": "MDM2–p53; read-out: MDM2 IC50", "value": "1.9 ± 0.3", "unit": "µM"}]}, {"compound": "N#Cc1ccc(-n2c(-c3ccccc3)cc(C=C3C(=O)NC(=O)NC3=O)c2-c2ccccc2)cc1", "note": "[Compound 4q]", "values": [{"measurement": "IC50", "setting": "MDMX–p53", "value": "7 ± 3", "unit": "µM"}, {"measurement": "IC50", "setting": "MDM2–p53; read-out: MDM2 IC50", "value": "4.7 ± 1.9", "unit": "µM"}]}, {"compound": "N#Cc1ccc(-n2c(-c3ccccc3)cc(C=C3C(=O)NC(=S)NC3=O)c2-c2ccccc2)cc1", "note": "[Compound 4r]", "values": [{"measurement": "IC50", "setting": "MDMX–p53", "value": "0.9 ± 0.42", "unit": "µM"}, {"measurement": "IC50", "setting": "MDM2–p53; read-out: MDM2 IC50", "value": "0.2 ± 0.07", "unit": "µM"}, {"measurement": "GI50", "setting": "SN40R2", "value": "5.9 ± 0.3", "unit": "µM"}, {"measurement": "GI50", "setting": "MRK-NU-1", "value": "6.1 ± 0.7", "unit": "µM"}, {"measurement": "GI50", "setting": "SJSA-1", "value": "5.1 ± 0.9", "unit": "µM"}]}, {"compound": "O=C1NC(=O)C(=Cc2cc(-c3ccccc3)n(-c3ccc([N+](=O)[O-])cc3)c2-c2ccccc2)C(=O)N1", "note": "[Compound 4s, 5-((1-(4-nitrophenyl)-2,5-diphenyl-1H-pyrrol-3-yl)methylene)pyrimidine-2,4,6(1H,3H,5H)-trione]", "values": [{"measurement": "IC50", "setting": "MDMX–p53", "value": "0.68 ± 0.18", "unit": "µM"}, {"measurement": "IC50", "setting": "MDM2–p53; read-out: MDM2 IC50", "value": "0.15 ± 0.06", "unit": "µM"}]}, {"compound": "O=C1NC(=S)NC(=O)C1=Cc1cc(-c2ccccc2)n(-c2ccc([N+](=O)[O-])cc2)c1-c1ccccc1", "note": "[Compound 4t]", "values": [{"measurement": "IC50", "setting": "MDMX–p53", "value": "0.63 ± 0.12", "unit": "µM"}, {"measurement": "IC50", "setting": "MDM2–p53; read-out: MDM2 IC50", "value": "0.17 ± 0.09", "unit": "µM"}, {"measurement": "GI50", "setting": "SN40R2", "value": "5.2 ± 0.4", "unit": "µM"}, {"measurement": "GI50", "setting": "MRK-NU-1", "value": "4.9 ± 0.6", "unit": "µM"}, {"measurement": "GI50", "setting": "SJSA-1", "value": "4.7 ± 1", "unit": "µM"}]}, {"compound": "CCN1C(=O)C(=Cc2cc(-c3ccccc3)n(-c3ccc(Cl)cc3)c2-c2ccccc2)C(=O)N(CC)C1=S", "note": "[Compound 4u]", "values": [{"measurement": "fold less potent against MDM2 compared with unsubstituted analogues", "setting": "MDM2–p53", "value": "3–4 fold"}, {"measurement": "IC50", "setting": "MDM2–p53; read-out: MDM2 IC50", "value": "0.3 ± 0.12", "unit": "µM"}]}]}
